Assays:
[1] = system: Sprague-Dawley (SPD) rats; test: Elevated plus maze (EPM) after 83 days chronic feeding, Study 1; type: in vivo, rat; conditions: compared to control (SD)
Protocol: Generally, exogenous ketone supplements were tested and fed chronically for 83 days and administered sub-chronically for 7 days by gavage, followed by assessment of anxiety measures on elevated plus maze (EPM) on 97 male SPD rats.
In order to familiarize the animals to the intragastric gavage method, tap water was gavaged for 5 days before ketone supplementation. A total of 48 male SPD rats were fed for 83 days with either standard rodent chow (SD)+water application (˜25 g/kg b.w. water/day) (SD/control group; n=9) or SD+ketone supplementation by gavage.
(§1) EPM (COULBOURN Instruments) was used to assess anxiety-related behavior of the rats after 83 days of chronic feeding or after 7 days of oral gavage. EPM experiments were carried out under non-stressful conditions (in a dimly lit and quiet room) between 12.00 and 14.00 hours.
(§2) The rats were transferred in their home cage to the experimental room 30 min prior to beginning the experiment. Briefly, rats were placed in the intersection of the four arms of the EPM, facing the open arm opposite to where the experimenter was and their behavior was recorded for 5 minutes. The amount of time spent and number of entries made on the open arms, closed arms and the center zones were recorded. Latency to entry into the closed arms and the distance travelled in each zones was also measured in chronically treated SPD rats. Notes were made on other ethological measures such as number of rears, head dips, fecal boli, and freezing, or stretched-attend postures.
(§3) At the end of the 5-minute test the rats were removed from the maze and placed back into their home cage. The maze was cleaned with 70% alcohol and after it with tap water and dried with paper towel between rats. The primary method for data collection was a video-tracking system with computer interface and video camera (SMART V3.0 PLATFORM, PANLAB, Harvard Apparatus, USA), to automatically collect behavioral data in SPD rats. A blinded observer was present in the testing room separated from the maze by a curtain, and manually collected EPM data in both SPD and WAG/Rij animals at the end of treatments.
(§4) All data are presented as the mean±standard error of the mean (SEM). The effects of ketone supplementations on anxiety level were compared, as well as on blood βHB and glucose levels to control or/and baseline levels. Data analysis was performed using GraphPad PRISM version 6.0a. Results were considered significant when p<0.05. Significance was determined by unpaired t-test. Blood ketone, blood glucose, and body weight change were compared using a two-way ANOVA with Tukey's multiple comparisons test and unpaired t-test.

[2] = Blood βHB and glucose levels (Precision Xtra), SPD rats, Study 3
Source text: A total of 48 male SPD rats were fed for 83 days with either standard rodent chow (2018 Teklad Global 18% Protein Rodent Diet (#2018), Harlan) (SD/control; n=9) or SD+ketone supplementation. […] Higher dose was used for chronic administration, as the rats were consuming food-integrated ketone supplementation throughout the day, not at a single time point.
In order to familiarize the animals to the intragastric gavage method, water was gavaged for 5 days prior to ketone supplementation.
In the chronic feeding study, blood βHB and glucose levels were measured 24 hours before the 1st day of ketone treatments (baseline levels) and at the 13th week after the EPM experiment. In the 7-day oral gavage studies, blood βHB and glucose levels were measured 24 hours before the 1st day of ketone treatments (baseline levels; SPD and WAG/Rij rats), 24 hours after the first gavage, and 60 min after gavage on the 7th day (SPD and WAG/Rij rats). Whole blood samples (10 μL) were taken from the saphenous vein for analysis of blood glucose (mg/dl) and βHB (mmol/1) levels with the commercially available glucose and ketone (βHB) monitoring system Precision Xtra™ (Abbott Laboratories, Abbott Park, Ill., USA).
as §4, with “anxiety-related behavior” for “anxiety level”, “one-way ANOVA with Fisher s LSD test for the behavioral data.” for “unpaired t-test.”, “test.” for “test and unpaired t-test.”

[3] = system: Sprague-Dawley (SPD) rats; test: EPM after 7 days oral gavage, SPD rats, Study 1; type: in vivo, rat; conditions: compared to control (SD); for Time spent in the center: 7 days (gavage 5 g/kg b.w./day or KD fed)
Protocol: as §1, §2, §3, §4

SPD rats [4] = test: EPM after 7 days oral gavage, SPD rats, Study 3; type: in vivo, rat; conditions: 7 days gavage 5 g/kg b.w./day
Protocol: (§5) Generally, exogenous ketone supplementation was tested by adding to food and feeding chronically for 83 days in SPD rats and administering sub-chronically for 7 days in both rat models by daily intragastric gavage bolus, followed by assessment of anxiety measures on EPM. The groups included standard diet (SD) or SD+ketone supplementation.
(§6) EPM (Coulbourn Instruments) was used to assess anxiety-related behavior of the rats after 83 days of chronic feeding or after 7 days of oral gavage. EPM experiments were carried out under non-stress conditions (in dimly lit and quiet room) between 12.00 and 14.00 hours.
(§7) The rats were transferred in their home cage to the experimental room 30 min prior to beginning the experiment. Briefly, rats were placed in the intersection of the four arms of the EPM, facing the open arm opposite to where the experimenter was and their behavior was recorded for 5 minutes. The amount of time spent and number of entries made on the open arms, closed arms and the center zones were video recorded. Latency to entry into the closed arms and the distance travelled in each zones was also measured in chronically treated SPD rats. […] At the end of the 5-minute test, the rats were removed from the maze and placed back into their home cage. The maze was cleaned with 70% alcohol and after it with tap water and dried with paper towel between rats. The primary method for data collection was a video-tracking system with computer interface and video camera (SMART V3.0 PLATFORM, Panlab, Harvard Apparatus, USA), to automatically collect behavioral data in SPD rats. A blinded observer was present in the testing room separated from the maze by a curtain, and collected EPM data in both SPD and WAG/Rij animals.
(§8) Results were considered significant when p<0.05.

SPD rats [5] = test: EPM after 83 days chronic feeding, SPD rats, Study 3; type: in vivo, rat; conditions: chronic feeding 83 days, compared to control (SD)
Protocol: as §5, §6, §7, §8

[6] = Blood βHB and glucose compared between SPD and WAG/Rij rats, Study 1; type: in vivo, rat; conditions: for Glucose, Mean Diff., Tukey's multiple comparisons test (Compare S-D to WagRij) / βHB, Mean Diff., Tukey's multiple comparisons test (Compare S-D to WagRij): 7 days:S-D minus 7 days:WR, same supplement (5 vs 2.5 g/kg/day); for βHB levels in WAG/Rij rats compared to SPD rats: before (baseline) and after sub-chronic ketone supplementation
[7] = Blood βHB and glucose levels (PRECISION XTRA), WAG/Rij rats, Study 1; type: in vivo, rat; conditions: for Blood βHB: WAG/Rij rats, after 7 days of gavaging ~2.5 g/kg b.w./day, compared to baseline; for Glucose, Mean Diff., Tukey's multiple comparisons test (Compare S-D to WagRij) / βHB, Mean Diff., Tukey's multiple comparisons test (Compare S-D to WagRij): WR (WAG/Rij) rats, own Baseline minus 7 days of the same group

## CC(=O)CC(=O)OCCC(C)OC(=O)CC(C)=O (centres unmarked) [KE, 1,3-butanediol-acetoacetate diester]
[1]; chronic feeding 83 days
  Distance traveled in the closed arms: significantly less
  Latency to first entrance of closed arms: significantly greater
[2]; SPD rats, 24 hours after a single gavage, compared to control
  Blood βHB levels: elevated
[2]; SPD rats, after 13 weeks of chronic feeding
  Blood glucose: lower
[2]; SPD rats, after 83 days of chronic feeding, compared to control
  Blood βHB levels: significantly elevated
[2]; SPD rats, sub-chronic, at 24 hours, compared to control
  Blood glucose levels: lower
[3]
  Time spent in the center: decreased
[3]; 7 days gavage 5 g/kg b.w./day
  Time spent in the open arms: increased
SPD rats [4]; compared to control
  Entries to the closed arms: less frequent
  Time spent in the center: decreased
  Time spent in the open arms: increased
SPD rats [5]
  Distance traveled in the closed arms: significantly less
  Time spent in the closed arms: significantly less
[6]
  Glucose, Mean Diff., Tukey's multiple comparisons test (Compare S-D to WagRij): 27.5 mg/dL
  βHB, Mean Diff., Tukey's multiple comparisons test (Compare S-D to WagRij): −0.9653 mmol/1
  βHB levels in WAG/Rij rats compared to SPD rats: Higher
[7]
  Blood βHB: elevated
  Glucose, Mean Diff., Tukey's multiple comparisons test (Compare S-D to WagRij): -2.75 mg/dL
  βHB, Mean Diff., Tukey's multiple comparisons test (Compare S-D to WagRij): −0.6125 mmol/1

## Na^+/K^+-βHB mineral salt [KS]
[1]; chronic feeding 83 days (~25 g/kg b.w./day; LKE ~10)
  Time spent in the open arms: significantly more
[1]; chronic feeding 83 days
  Distance traveled in the center: more
  Distance traveled in the closed arms: significantly less
  Distance traveled in the open arms: significantly greater
  Latency to first entrance of closed arms: significantly greater
  Time spent in the center: significantly more
  Time spent in the closed arms: significantly less
[2]; rat, in vivo
  Blood βHB: elevated
[3]
  Time spent in the center: decreased
[3]; 7 days gavage 5 g/kg b.w./day
  Entries to the center: fewer times
  Entries to the closed arms: less frequent
SPD rats [4]; compared to control
  Entries to the closed arms: less frequent
  Time spent in the center: decreased
SPD rats [4]; compared to control (SD)
  Entries to the center: fewer times
SPD rats [5]
  Distance traveled in the center: more
  Distance traveled in the closed arms: significantly less
  Distance traveled in the open arms: significantly greater
  Time spent in the center: significantly more
  Time spent in the closed arms: significantly less
[6]
  Glucose, Mean Diff., Tukey's multiple comparisons test (Compare S-D to WagRij): 15.28 mg/dL
  βHB, Mean Diff., Tukey's multiple comparisons test (Compare S-D to WagRij): −0.5614 mmol/1
  βHB levels in WAG/Rij rats compared to SPD rats: Higher
[7]
  Blood βHB: elevated
  Glucose, Mean Diff., Tukey's multiple comparisons test (Compare S-D to WagRij): -6.5 mg/dL
  βHB, Mean Diff., Tukey's multiple comparisons test (Compare S-D to WagRij): −0.5375 mmol/1
